Results taken from PMC5835316 (Chemosphere, 2017).
Read-outs that look alike come from different tables or passages of the source.

Assays:
[1] = test system: zebrafish (Danio rerio) embryo; assay: zebrafish embryo teratogenicity assay; settings: for EC50: read-out: EC50 (for teratogenicity) and LC50, equivalently calculated; for percent deformity: 15, 30 and 60 µM (≥ 15 µM); for EC50/LC50: retinoids, deformity equivalent to mortality, probit analysis
[2] = type: physicochemical; settings: mild heating; standing at room temperature and ambient light
RAR = settings: ref Repa et al., 1993; cited from earlier work
[3] = test system: zebrafish (Danio rerio) embryo; settings: ref Hermann, 1995; Selderslaghs et al., 2009; Wang et al., 2014; cited from earlier work

## CC1=C[C@H](O)CC(C)(C)[C@H]1/C=C/C(C)=C/C=C/C(C)=C/C=C/C=C(C)/C=C/C=C(C)/C=C/C1=C(C)C[C@@H](O)CC1(C)C [lutein]
[1]; 30 µM
  observed deformities (Fig. 5): head and eye hypoplasia and truncated tail
[1]; Danio rerio
  EC50: 4.7 ± 3 µM
[1]; by 3 dpf
  percent deformity: 100%

## 4-Ketomyxol 2′-glycoside [Compound 2]
[1]; 3 and 5 dpf
  observed deformities (Fig. 5): head and eye hypoplasia and truncated tail
[1]; by 3 dpf
  additional concentration with significant percent deformity: 5 µM
  concentration showing pronounced developmental dysfunction: ≥ 5 µM
  percent deformity: 100%
[1]; at 5 dpf, ± standard error
  EC50: 1.8 ± 0.2 µM
[2]
  stability: highly unstable

## CC1=C(/C=C/C(C)=C/C=C/C(C)=C/C=O)C(C)(C)CCC1 [retinal, all-trans retinaldehyde]
[1]
  EC50/LC50: 1.8 ± 0.7 µM
RAR
  binding affinity to RAR: essentially no binding affinity

## 4-Hydroxymyxol 2′-glycoside [Compound 3]
[1]; in vivo
  teratogenicity (qualitative, bioassay-guided fractionation): single bioactive component

## CC1=C(/C=C/C(C)=C/C=C/C(C)=C/C=C/C=C(C)/C=C/C=C(C)/C=C/C=C(C)/C=C/[C@H](O[C@@H]2O[C@@H](C)[C@@H](O)[C@@H](O)[C@@H]2O)C(C)(C)O)C(C)(C)C[C@H](O)C1 [Compound 1, Myxol 2′-glycoside]
[1]; 5 µM, 3 and 5 dpf
  observed deformities (Fig. 5): head and eye hypoplasia, truncated tail and pericardial edema
[1]; by 3 dpf
  concentration showing pronounced developmental dysfunction: ≥ 5 µM
  percent deformity: 100%
[1]; at 5 dpf, ± standard error
  EC50: 2.4 ± 0.9 µM
[2]
  stability: highly unstable

## CC1=C(/C=C/C(C)=C/C=C/C(C)=C/C(=O)O)C(C)(C)CCC1 [RA, all-trans retinoic acid]
[1]; 1 µM
  teratogenicity at lowest concentration tested: effectively lethal
[1]; 1 µM, 3 dpf and 5 dpf
  observed deformities (Fig. 5): severely arrested development of the body axis including head and eye hypoplasia and truncated tail
[3]
  LC50 and EC50 (for teratogenicity) previously reported in the zebrafish embryo: nanomolar to sub-nanomolar range

## CC1=C(/C=C/C(C)=C/C=C/C(C)=C/C=C/C=C(C)/C=C/C=C(\C)C=O)C(C)(C)CCC1 [β-apo-8’carotenal, trans-β-apo-8’carotenal]
[1]; at 3 dpf
  teratogenicity: no teratogenicity was observed
[1]; at 5 dpf, not significantly different from controls
  developmental toxicity (percent deformity): ~ 22%

## CC1=C(/C=C/C(C)=C/C=C/C(C)=C/C=C/C=C(C)/C=C/C=C(C)/C=C/C2=C(C)C(=O)CCC2(C)C)C(C)(C)CCC1=O [canthaxanthin]
[1]; 30 µM, 3 dpf
  observed deformities (Fig. 5): head and eye hypoplasia and truncated tail
[1]; 2 dpf, 60 µM
  percent deformity (development toxicity): approximately 89%
[1]; by 3 dpf
  percent deformity: 100%
[1]; at 5 dpf, ± standard error
  EC50: 8.7 ± 1.8 µM

## CC1=C(/C=C/C(C)=C/C=C/C(C)=C/C=C/C=C(C)/C=C/C=C(C)/C=C/C2=C(C)C[C@@H](O)CC2(C)C)C(C)(C)C[C@H](O)C1 [zeaxanthin]
[1]; 60 µM, 3 dpf
  observed deformities (Fig. 5): little effect
[1]; 3–5 dpf, 60 µM
  embryo development: developed normally
[1]; 5-day exposure studies, 1-60 µM
  teratogenicity: no teratogenicity was observed

## CC1=C(/C=C/C(C)=C/C=C/C(C)=C/C=C/C=C(C)/C=C/C=C(C)/C=C/C2=C(C)CCCC2(C)C)C(C)(C)CCC1 [β-carotene]
[1]; 30 µM, 5 dpf
  observed deformities (Fig. 5): truncated tail and pericardial edema
[1]; Danio rerio
  EC50: 23.5 ± 8.9 µM

## CC1=C(/C=C/C(C)=C/C=C/C(C)=C/CO)C(C)(C)CCC1 [retinol]
[1]
  EC50/LC50: 9.2 ± 7.6 µM
